Source: patent publication US20100317733A1, “USE OF CIS-EPOXYEICOSANTRIENOIC ACIDS AND INHIBITORS OF SOLUBLE EPOXIDE HYDROLASE TO REDUCE PULMONARY INFILTRATION BY NEUTROPHILS” (THE REGENTS OF THE UNIVERSITY OF CALIFORNIA, priority 2004, published 2010)
“Also recorded” adds a separate entry of the source.

Tests used:
sEH = molecular target: T1, sEH (Homo sapiens, UniProt P34913); experiment: Inhibition of soluble epoxide hydrolase (sEH); type: biochemical
T1 sequence (P34913 1-555): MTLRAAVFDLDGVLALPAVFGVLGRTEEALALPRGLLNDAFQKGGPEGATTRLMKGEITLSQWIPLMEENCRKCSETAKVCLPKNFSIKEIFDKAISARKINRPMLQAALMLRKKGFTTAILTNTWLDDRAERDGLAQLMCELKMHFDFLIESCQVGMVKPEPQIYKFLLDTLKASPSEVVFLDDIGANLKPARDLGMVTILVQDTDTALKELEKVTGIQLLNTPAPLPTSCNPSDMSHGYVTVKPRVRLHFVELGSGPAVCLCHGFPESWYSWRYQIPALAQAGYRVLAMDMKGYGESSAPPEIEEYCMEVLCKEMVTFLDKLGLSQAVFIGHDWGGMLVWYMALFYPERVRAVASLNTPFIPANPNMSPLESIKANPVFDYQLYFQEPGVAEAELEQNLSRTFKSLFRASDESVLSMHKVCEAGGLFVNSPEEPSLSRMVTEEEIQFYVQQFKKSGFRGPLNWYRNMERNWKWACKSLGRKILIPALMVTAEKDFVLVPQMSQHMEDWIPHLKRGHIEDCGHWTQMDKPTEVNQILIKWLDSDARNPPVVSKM
Text: The enzyme also can be detected based on the binding of specific ligands to the catalytic site which either immobilize the enzyme or label it with a probe such as dansyl, fluoracein, luciferase, green fluorescent protein or other reagent.
The assays are normally carried out with a recombinant enzyme following affinity purification.

[1] = Metabolic stability (stated, no method)
[2] = system: tobacco smoke-induced inflammation in the lungs of rats; conditions: Smith 2002; cited from earlier work
[3] = system: cells in BAL from rats exposed to tobacco smoke; experiment: Bronchoalveolar lavage (BAL) cell counts and differentials in rats exposed to tobacco smoke for 3 days; type: in vivo, SH rats; conditions: for % Eosinophils / % Lymphocytes / % Macrophages / % Neutrophils: cell differential in BAL, 3 days, mean ± SE (n = 4)
Text: Animals. Healthy, 11-week-old male spontaneously hypertensive (“SH”) (SHR/NCrlBR) rats (derived from WKY rats by phenotypic segregation of the hypertensive trait and inbreeding) were purchased from Charles River Laboratories (Portage, Mich.) and quarantined for 1 week prior to exposure to tobacco smoke. Animals were handled in accordance with standards established by the U.S. Animal Welfare Acts set forth in National Institutes of Health guidelines and the University of California, Davis Animal Care and Use Committee. The rats were housed in plastic cages with TEK-Chip pelleted paper bedding (Harlan Teklad, Madison, Wis.) and maintained on a 12 hour light/12 hour dark cycle. All animals had access to water and Laboratory Rodent Diet 5001 purchased from LabDiet (Brentwood, Mo.) ad libitum before, during and after exposures.
Subcutaneous Implantation of EETs for Tobacco Smoke Exposures. Wax formulations containing EETs were implanted subcutaneously 1 day prior to onset of exposure to tobacco smoke. Animals were implanted with the EETs formulation on the day before the first day of exposure. Four animals from the control group and four animals from the tobacco smoke-exposed group were implanted with the EETs formulation. The approach of a single subcutaneous implantation for the 3-day study was selected to minimize stress to animals from anesthesia.
Subcutaneous injection of AUDA-nBE for Tobacco Smoke Exposures. AUDA-nBE (7 mg/1 ml corn oil) was subcutaneously administered in SH rats at a dose of 10 mg/kg bodyweight. The total volume injected was 0.36 to 0.46 ml. Animals were injected with AUDA-nBE each day prior to exposure. Doses of AUDA-nBE used in this study were selected based on results from preliminary pharmacokinetic studies in mice and rats. These doses were selected to provide optimal efficacy and minimal toxicity over a three-day period. Four animals from the control group and four animals from the tobacco smoke-exposed group were injected with AUDA-nBE. Four animals with EETs implants from the control group and four animals with EETs implants from the tobacco smoke-exposed group were injected with AUDA-nBE. In addition, four control animals and four tobacco smoke-exposed animals were injected with corn oil using the same protocol as the AUDA-nBE -injected animals.
Tobacco Smoke Exposure. Rats were exposed to a mixture of sidestream and mainstream cigarette smoke in a smoking apparatus (Teague, S. V. et al., Inhal. Toxicol. 6:79-93 (1994)). The cigarettes were humidified 2R4F research cigarettes (Tobacco Health Research Institute; Lexington, Ky.). An automatic metered puffer was used to smoke the cigarettes under Federal Trade Commission conditions (35 ml puff, 2 sec duration, 1 puff per min). The smoke was collected in a chimney, diluted with filtered air, and delivered to whole-body exposure chambers. The exposures were characterized for three major constituents of cigarette smoke; nicotine, carbon monoxide, and total suspended particulates (TSP). […] Carbon monoxide was measured every 30 minutes, TSP every 2 hours, and nicotine once per day (approximately midway through the exposure period).
Bronchoalveolar Lavage. Established protocols were followed for bronchoalveolar lavage (BAL) of animals (Gossart, S. et al., J. Immunol. 156:1540-1548 (1996)). Eighteen hours after the last exposure to tobacco smoke, animals were anesthetized with an overdose of sodium pentobarbital. The trachea was cannulated and the lung lavaged with one aliquot of Ca^2+/Mg^2+-free phosphate buffered saline (PBS, pH 7.4). The volume of the aliquot was equal to 35 ml/kg body weight (approximately 90% of total lung capacity). The aliquot was instilled into the lungs three times before final collection. The BAL fluid (BALF) was immediately centrifuged at 250×g for 10 min at 4° C. to remove cells. The cell pellet was then resuspended in PBS and the cells counted with a hemocytometer. […]

[4] = Pharmacokinetics in SH rats following subcutaneous administration; type: in vivo
Protocol: Equipment. LC-MS-MS analysis was performed using a Micromass Quattro Ultima triple quadrupole tandem mass spectrometer (Micromass, Manchester, UK) equipped with atomospheric pressure ionization source [atomospheric z-spray pressure chemical ionization (APcI) or electrospray ionization (ESI) interface]. The HPLC system consisted of a Waters model 2790 separations module (Waters Corporation, Milford, Mass.) including an autosampler with refrigerated sample compartment and as inline vacuum degasser and Waters model 2487 dual λ absorbance detector (Waters Corporation). An XTerra™MS C18 column (30×2.1 mm I. D., 3.5 μm; Waters Corporation) was used with a flow rate of 0.3 mL/min at ambient temperature. Data were manipulated with MassLynx software (Ver. 4.0).
LC-MS-MS conditions. The ESI mass spectrometer was operated in the positive ion mode with a capillary voltage at 1.0 kV. Cone gas (N2) and desolvation gas (N2) were maintained at flow rates of 130 and 630 L/h, respectively. The source and the desolvation temperature were set at 100° C. and 300° C., respectively. […] Quantitative analysis was performed in the multiple reaction monitoring (MRM) mode with a dwell time of 300 ms. Ultra pure argon (99.9999%) was used as a collision gas at a pressure of 2.5 milli-torr for collision-induced dissociation (CID). […]
Pharmacokinetics analysis. […] AUCt was calculated by the linear/log trapezoidal rule.

**Q.** For CCCCCCCCCCCCNC(=O)NC12CC3CC(CC(C3)C1)C2 [ADU, N-Adamantyl-N′-dodecyl urea], which “activity as an inhibitor of sEH” value (sEH) is on record?
**A.** Its value is “particularly high activity”.

**Q.** What about the metabolic stability [1] of the same compound?
**A.** The metabolic stability was “metabolically stable”.

**Q.** With CCN1C=CN(CC)C1=C1C2=NC(=C(c3n(CC)cc[n+]3CC)C3=NC(=C(c4n(CC)cc[n+]4CC)c4ccc([n-]4)C(c4n(CC)cc[n+]4CC)=C4C=CC1=N4)C=C3)C=C2.[Cl-].[Cl-].[Cl-].[Cl-].[Cl-].[Mn+3] [AEOL 10150] as the compound, how does the “tobacco smoke-induced inflammation in the lungs” value [2] read?
**A.** The value was “decrease”.

**Q.** With CCCCOC(=O)CCCCCCCCCCCNC(=O)NC12CC3CC(CC(C3)C1)C2 [AUDA-nBE, 12-(3-adamantane-1-yl-ureido)-dodecanoic acid butyl ester] as the compound, how does the “% Eosinophils” value ([3]; filtered air) read?
**A.** The value was 0.15 ± 0.10%.

**Q.** And the “% Lymphocytes” value ([3]; filtered air)?
**A.** Its value is 0.55 ± 0.15%.

**Q.** And the “% Macrophages” value ([3]; filtered air)?
**A.** Its value is 92.1 ± 1.6%.

**Q.** And the “% Neutrophils” value ([3]; filtered air)?
**A.** The value was 7.3 ± 1.8%.

**Q.** And the “% Eosinophils” value ([3]; tobacco smoke)?
**A.** The value was 0.10 ± 0.10%.

**Q.** What about the “% Lymphocytes” value ([3]; tobacco smoke) of the same compound?
**A.** The value was 0.25 ± 0.10 %.

**Q.** And the “% Macrophages” value ([3]; tobacco smoke)?
**A.** Its value is 62.9 ± 1.8 %.

**Q.** And the “% Neutrophils” value ([3]; tobacco smoke)?
**A.** Its value is 36.8 ± 1.6 %.

**Q.** And the “reduction in the number of neutrophils found in the lungs” value ([3]; rats, animal model of COPD (tobacco smoke), FIG. 4)?
**A.** The value was ~55%.

**Q.** And the “total number of cells in BALF” value ([3]; tobacco smoke 3 days, treatment before exposure, FIG. 2)?
**A.** Its value is “significantly decreased”.

**Q.** And the “number of BALF macrophages” value ([3]; tobacco smoke 3 days, treatment before exposure, FIG. 3)?
**A.** Its value is “significantly decreased; also recorded: significant reductions”.

**Q.** And the “number of BALF neutrophils” value ([3]; tobacco smoke 3 days, treatment before exposure, FIG. 4)?
**A.** Its value is “significantly decreased; also recorded: significant reductions”.

**Q.** What about the “number of BALF lymphocytes” value ([3]; tobacco smoke 3 days, treatment before exposure, FIG. 5) of the same compound?
**A.** The value was “decreased the number of BALF lymphocytes to levels not significantly different from filtered air controls; also recorded: significant reductions”.

**Q.** And the “metabolism of the prodrug” value ([4]; subcutaneous administration)?
**A.** The value was “metabolized to AUDA”.

**Q.** With O=C(O)CCCCCCCCCCCNC(=O)NC12CC3CC(CC(C3)C1)C2 [AUDA] as the compound, how does the half-life ([4]; blood, single subcutaneous dose of AUDA-nBE 10 mg/kg) read?
**A.** The half-life was 22 h.
